For the assay, the system named is calcium channel (e.g., L-type, N-type, etc.) current. The assay can be described thus: HEK assay: whole-cell voltage clamp in transiently transfected HEK-293T/17 cells. Type of assay: cell-based. The following applies: patch clamp, holding potential −100 mV, steps to about +10 mV. The protocol: HEK-293T/17 cells are transiently transfected in a similar manner as described in FuGENE 6 Package Insert Version 7, April 2002, Roche Applied Science, Indianapolis, Ind. The cells are plated at 2.5×10^5 cells in 2 mL in a 6-well plate in incubator for one night and achieve a 30 40% confluence. In a small sterile tube, add sufficient serum-free medium as diluent for FuGENE Transfection Reagent (Roche Applied Science, Indianapolis, Ind.), to a total volume of 100 μL. Add 3 μL of FuGENE 6 Reagent directly into this medium. The mixture is tapped gently to mix. 2 μg of DNA solution (0.8-2.0 μg/μL) is added to the prediluted FuGENE 6 Reagent from above. The DNA/Fugene 6 mixture is gently pipeted to mix the contents and incubated for about 15 minutes at room temperature. The complex mixture is then added to the HEK-293T/17 cells, distributing it around the well, and swirled to ensure even dispersal. The cells are returned to the incubator for 24 hrs. The transfected cells are then replated at density 2.5×10^5 in a 35 mm dish with 5 glass coverslips and grow in low serum(1%) media for 24 hrs. Coverslips with isolated cells are then transferred into chamber and calcium channel ([…].) current or other currents for counter screening are recorded from the transiently transfected HEK-293T/17 cells. The whole-cell voltage clamp configuration of the patch clamp technique is employed to evaluate voltage-dependent calcium currents essentially as described by Thompson and Wong (1991) J. Physiol., 439: 671-689. […] Table 3 contains IC50's for representative compounds.

Like-named read-outs stand apart in the source and are kept apart here.

Take `COc1ccccc1-c1nc(CCN(C)c2ccc(F)cc2)cn1-c1ccc(Cl)cc1` [Compound 1]: the IC50 (as a rule, the concentration at which inhibition is half-maximal) worked out at 46 nM. For the molecule `COc1ccccc1-c1nc(Cc2nc3ccccc3[nH]2)cn1-c1ccc(Cl)cc1` [Compound 2, 2-[1-(4-Chloro-phenyl)-2-(2-methoxy-phenyl)-1H-imidazol-4-ylmethyl]-1H-benzoimidazole], the IC50 (read-out: IC50) was determined as 173 nM. On the same count and under the same terms, the result for `COc1ccccc1-c1nc(CCN2CCCC2)cn1-c1ccc(Cl)cc1` [Compound 6] reads 990 nM.
